# Measured values taken from PMC12077799, “Fragment-based drug discovery for transthyretin kinetic stabilisers using a novel capillary zone electrophoresis method” (PLOS One, 2025).
# Like-named read-outs stand apart in the source and are kept apart here.
# Experiments:
# [1] = biological target: TTR thyroxine binding sites; details: cited from earlier work
# [2] = biological target: T1, Human transthyretin (TTR) thyroxine binding sites (Homo sapiens, UniProt P02766); test: TTR CZE Free Probe Peak Height Restoration (FPPHR) assay, 8-ANS displacement; details: 30 μM 8-ANS with 20 μM TTR
# T1 construct: purchased SCIPAC (Sittingbourne, Kent, UK) P171-1
# [3] = biological target: T1, Human transthyretin (TTR) thyroxine binding sites; test: as above
# Protocol: CZE assays development and fragment screening were performed on a Beckman P/ACE MDQ capillary electrophoresis system (Beckman Coulter Inc., Brea, CA) operated by 32 Karat™ software. All capillaries (Polymicro Technologies, Phoenix, AZ) used were internally coated with polyvinyl alcohol and of around 30 cm in length, 75 microns in internal diameter. Capillary temperature was maintained at 20 °C by recirculating fluorinated fluid coolant during electrophoresis. Sample trays and buffer trays temperature were maintained at 4°C and ambient respectively. For every electrophoretic run, the capillary was pressure rinsed and prefilled with electrophoresis buffer also known as background electrolyte (termed as Running Buffer hereafter) before injection. After each electrophoretic run, the capillary was rinsed with Running Buffer and H2O by pressure (20 psi for 1 minute). Three Running Buffers (RB), A: 20 mM Tris pH 7.5, 1 mM KCl, 1.62 mM NaCl; B: 20 mM HEPES pH 7.0, 2 mM CaCl2 and C: 20 mM HEPES pH 7.0, 2 mM CaCl2, 1% DMSO were used. All CE traces were analysed by 32Karat™ Software with a built-in automatic peak integration algorithm.
# Control 1 Inject Buffer (IB) containing 30 μM 8-ANS was prepared by mixing 1 μL of 3 mM 8-ANS DMSO stock with 99 μL of Running Buffer B in a 0.2 mL PCR tube. Control 2 Inject Buffer was prepared by mixing 1μL of 3 mM 8-ANS DMSO stock with 20 μL of 100 μM tetrameric TTR stock in Running Buffer B and 79 μL of Running Buffer B. The final concentrations (f/c) were 8-ANS 30 μM, TTR 20 μM and 1% DMSO v/v.
# The maximum Free Probe Peak Height (Control 1 Peak Height) was determined by Outlet Injection (see Fig 1) of Control 1 with an injection pressure of 0.5 psi for 5 seconds (equivalent to ≈ 20–30 nL). An identical injection of Control 2 provides the minimum Free Probe Peak Height (Control 2 Peak Height) enabling calculation of % of bound and unbound, i.e., free 8-ANS. To determine the 8-ANS peak height in Control 1 and Control 2, the capillary was prefilled with Buffer C and electrophoresis carried out at 10 kV (Normal Polarity, Fig 1) with UV monitoring at 230 nm. For displacement analysis, ligand DMSO stock was diluted in Buffer B and used to fill the capillary as the Running Buffer. Electrophoresis commenced after injection of Control 2, thus the injected 8-ANS-TTR complex migrates inside a capillary filled with the test ligand. The observed 8-ANS peak height is defined as Sample Peak Height and the displaced 8-ANS can be calculated as:
# \% of Free Probe Peak Height Restoration= Sample Peak Height−Control 2 Peak Height/Control 1 Peak Height−Control 2 Peak Height
# [4] = biological target: T2, Human transthyretin (TTR) (Homo sapiens, UniProt P02766); test: Co-crystallisation of TTR-ligand complex, X-ray hit confirmation; type: binding; details: for Confirmed by X-ray: fragment seen in ligand-omitted difference density at >= 2σ in one or both binding sites, full or partial density
# T2 construct: purchased SCIPAC (Sittingbourne, Kent, UK) P171-1
# Protocol: Crystals were grown by vapor diffusion using a published crystallisation cocktail (100 mM HEPES pH 7.5, 200 mM CaCl2, 28% v/v PEG400) at 21 °C [29]. The hanging drop contained 1 μL of crystallisation cocktail, 1 μL of diluted ligand and 1 μL of TTR protein solution (85 μM). […] Crystals were harvested and flash cooled in a N2 cryostream or dipped into liquid ethane without cryoprotectant. Data was collected at Diamond Light Source (Oxon, UK) beamline I24, I04 or I04-1 (Pilatus 6M or ADSC Q315) or the European Synchrotron Radiation Facility (ESRF, Grenoble, France) beamline ID29 (Pilatus 6M-F) or in-house (Bruker X8 Diffractometer with APEXII CCD detector). Crystal unit cell was initially indexed by software MOSFLM [30] and LABELIT [31] within the EDNA [32] automatic data processing workflow. Diffraction image integration was performed by XDS [33] and reflection intensities were scaled by SCALA [34] or by PROTEUM2 if collected in-house. Phases were obtained by molecular replacement method using PHASER [35], 1DVQ from the Protein Data Bank (PDB) was used as the search model. Atomic positions of the initial model were refined by REFMAC5 [36]. Model building and ligand fitting was completed using COOT [37]. Model graphics were generated using CCP4MG [38]. Crystallographic statistics of all structures can be found in S4 Table.
# [5] = biological target: T3, TTR in undiluted normal human reference plasma (Homo sapiens, UniProt P02766); test: 125I-T4 displacement assay in neat normal human plasma; type: binding; details: for IC50: neat normal human plasma, 4-parameter logistic fit
# T3 construct: The TTR in plasma was immunoprecipitated by sheep anti-human prealbumin polyclonal antibody; tissue Precision Biologic Inc., Nova Scotia, Canada
# Description: The assay was adapted from one described previously. Briefly, test ligand and ^125I-T4 (Perkin Elmer Inc., Waltham, MA) were mixed with undiluted normal human reference plasma (Precision Biologic Inc., Nova Scotia, Canada). The TTR in plasma was immunoprecipitated by sheep anti-human prealbumin polyclonal antibody (The Binding Site Group Ltd., Birmingham, UK). The immunoprecipitate was washed with buffer and their radioactivity measured with a 2470 WIZARD automatic gamma counter (Perkin Elmer Inc., Waltham, MA). […] Percentage of total radioligand binding for samples of different ligand concentration was then calculated as follows: […]
# To calculate IC50 values, percentage of total radioligand binding at different concentration points were entered in SigmaPlot™ 11.0. Titration curves were done in triplicates with a minimum of 5 data points fitted by 4-Parameter Logistic Function.
# TTR = biological target: T4, TTR (Homo sapiens, UniProt P02766); test: Isothermal titration calorimetry (ITC); type: binding; details: for Kd: 25 °C, PBS pH 7.8, 3% DMSO
# T4 construct: purchased SCIPAC (Sittingbourne, Kent, UK) P171-1
# Protocol: All ITC experiments were conducted on an iTC200 calorimeter (GE Healthcare), and the settings were 25 °C, stir at 1000 RPM, 1–2 μL injection spaced with 100–150 seconds, reference power: 6 μcal/sec. Isotherms were fitted using ORIGIN 7 software (OriginLab, MA, USA). To prepare TTR ITC protein solution (5 mL), purified and freeze-dried human TTR was weighted and dissolved in 310 μL of pure water. The reconstituted protein solution was then desalted by spin column (Bio-Rad, Bio-Gel P6) and the eluted volume was transferred to a 15mL falcon tube. The protein solution was further diluted with 10x Phosphate Buffered Saline (PBS, 500 μL), DMSO (150 μL) and water, (f/c: 4.3 mM Na2HPO4, 137 mM NaCl, 2.7 mM KCl, 1.47 mM KH2PO4, 3% DMSO v/v, TTR 19.35–25 μM, pH 7.8). UV A260/280 was measured to obtain the actual protein concentration using a calculated extinction coefficient of 18450 M^-1 cm^-1. To prepare ligand ITC solution (1 mL), 30 μL of ligand stock in DMSO was diluted with 10x PBS (100 μL) and water (f/c: 4.3 mM Na2HPO4, 137 mM NaCl, 2.7 mM KCl, 1.47 mM KH2PO4, 3% DMSO v/v, Ligand 280–600 μM, pH 7.8).
# [6] = N = number of non-hydrogen atoms
Confirmed by X-ray [4],IC50 ([5]; read-out: Mean 125I-T4 IC50 ± SD (N = 3)) [µM],Kd (TTR; read-out: ITC Kd1 ± SD (N = 3)) [µM],Kd (TTR; read-out: ITC Kd2 ± SD (N = 3)) [µM],"Kd1 LE (Ligand Efficiency, ΔG/N) (TTR; [6]) [kcal/mol]","Kd2 LE (Ligand Efficiency, ΔG/N) (TTR; [6]) [kcal/mol]","FPPHR % tested at 10 µM ([3]; compound 10 µM in Running Buffer, 10% minimum for a binder) [% tested at 10 µM]","FPPHR % at 50 μM ([3]; compound 50 μM in Running Buffer, 10% minimum for a binder) [%]","ligand electron density, binding sites occupied in co-crystal structure ([4]; in words)","125I-T4 displacement at maximal concentration ([5]; 14.3mM, no plateau reached)",IC50 [5] [µM],"FPPHR % at 300 μM ± SD (N = 3) ([3]; fragment 300 μM in Running Buffer, injected 30 μM 8-ANS / 20 μM TTR, hit cut-off 10%)",Compound,"Kd ([1]; read-out: Kd1, 8-ANS at TTR thyroxine binding sites) [µM]","Kd ([1]; read-out: Kd2, 8-ANS at TTR thyroxine binding sites) [µM]",Kd ([1]; read-out: previously reported Kd values) [µM],"% of 8-ANS bound to TTR, deduced from free 8-ANS peak areas [2] [%]","% of 8-ANS bound to TTR, deduced from free 8-ANS peak heights ([3]; 30 μM 8-ANS with 20 μM TTR)"
,,,,,,,,,,,,"O=S(=O)(O)c1cccc2cccc(Nc3ccccc3)c12 [Compound 8-ANS, 8-Anilino-1-Naphthalenesulfonic acid]",1.05,4.79,1 to 5,~35,around 60%
Yes 9H7K,18.9 ± 6.14,0.064,0.91,0.58,0.48,33.32,59.77,,,,,Cc1n[nH]c(C)c1-c1cccc2cccnc12 [Compound 94320297],,,,,
"Yes 1 Site, Partial, 9H7A",,,,,,,,only observed in one site,≈ 60%,8880 ± 3670,12.18 ± 6.63 (N = 4) %,"NS(=O)(=O)c1cc(Cl)cc(Cl)c1 [SFL000006, 3,5-Dichlorobenzenesulphonamide]",,,,,
